Laboratory results: patent US11013780B2, “Methods of treating female infertility” (Myovant Sciences GmbH, priority 2016, dated 2021)
Read-outs that look alike come from different tables or passages of the source. Where a SMILES comes first, the peptide text is derived from it. [ ]: non-standard residue; d: D form. Arg(Me) = CNC(=N)NCCC[C@H](N)C(=O)O; Hyp = O=C(O)[C@@H]1C[C@@H](O)CN1; azaGly = NNC(=O)O

Legend:
CYP1A2 = target: T1, CYP1A2 (Homo sapiens, UniProt P05177); test: Inhibition of recombinant CYP1A2; type: in vitro ADME
T1 sequence (P05177 1-516): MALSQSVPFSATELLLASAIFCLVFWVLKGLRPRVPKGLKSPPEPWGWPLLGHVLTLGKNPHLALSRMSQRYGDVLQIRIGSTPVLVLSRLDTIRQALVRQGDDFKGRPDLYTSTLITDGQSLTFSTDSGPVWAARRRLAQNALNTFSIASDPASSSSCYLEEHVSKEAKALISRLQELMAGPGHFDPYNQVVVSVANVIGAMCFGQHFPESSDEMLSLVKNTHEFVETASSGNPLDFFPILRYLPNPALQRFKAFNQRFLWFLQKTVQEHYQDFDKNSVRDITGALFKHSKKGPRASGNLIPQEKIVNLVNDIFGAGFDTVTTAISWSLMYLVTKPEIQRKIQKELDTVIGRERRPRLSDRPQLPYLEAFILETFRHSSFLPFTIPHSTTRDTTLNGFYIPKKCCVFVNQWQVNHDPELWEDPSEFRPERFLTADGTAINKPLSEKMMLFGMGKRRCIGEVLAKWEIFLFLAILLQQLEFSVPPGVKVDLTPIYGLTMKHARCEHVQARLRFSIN

[1] = Pharmacokinetics in rats after SC and IV administration; conditions: rat, in vivo, rats; for AUC(0-t): read-out: AUC(0-24); for level at 5 min: read-out: C5min; for Cmax: read-out: Cmax
Experimental: The PK of API-MA was studied in rats after SC and IV administration.
The PK linearity of API-MA was also investigated in rats after IV administration. The plasma C5min and AUC(0-24) values increased dose-proportionally. […] The elimination T1/2 values were 0.4 hours at 0.01 and 0.1 mg/kg and 0.5 hours at 1 mg/kg. These findings indicate that the PK of API-FB was linear in rats after single IV administration over the dose range of 0.01 to 1 mg/kg. The greater than dose-proportional increase in the first-pass kinetics with SC administration would indicate nonlinear PK in rats after SC administration.

[2] = Pharmacokinetics in dogs after SC and IV administration; conditions: dog, in vivo, dogs; for AUC(0-t): read-out: AUC(0-24); for Cmax: read-out: Cmax; for bioavailability: read-out: BA (bioavailability)
Description: The PK of API-MA was studied in dogs after SC and IV administration.

[3] = Pharmacokinetics in monkeys after SC and IV administration; conditions: monkey, in vivo, monkeys; for AUC(0-t): read-out: AUC(0-24); for bioavailability: read-out: BA (bioavailability); for Cmax: read-out: Cmax
Description: The PK of API-MA was studied in monkeys after SC and IV administration.

[4] = Multiple-dose PK, 2-hour SC infusion once daily for 14 days, Japanese prostate cancer patients; type: in vivo, human; conditions: for half-life / Cmax / Tmax / AUC / Vd/F / AUC(0-inf) / MRT: male, human, in vivo; for AUC: read-out: AUC (0-tau); for Vd/F: read-out: Vz/F
Experimental: It was an open-label, ascending dose study of API-MA administered via 2-hour SC infusion once daily for 14 days that was expected to suppress testosterone in Japanese hormone-naïve prostate cancer patients. Six patients received API-MA at doses of 0.5 mg (3 patients) and 1.0 mg (3 patients) a day for 14 days.
To measure plasma concentrations of API-MA, blood specimens were collected at the following times: Day 1 (predose and 2, 4, 6, 10 hours postdose); days 2, 4, 6, 8, 10, and 12 (predose); day 14 (predose and 2, 4, 6, 10, 24, 48 hours postdose); day 21; and day 28. To measure urinary excretion of API-MA, urine specimens were collected at the following times: Day 1 (predose and 0 to 4, 4 to 8, 8 to 12, 12 to 24 hours postdose) and day 14 (0 to 4, 4 to 8, 8 to 12, 12 to 24 hours postdose).

[5] = IV 1 mg/kg, read-out: T½ γ (elimination) (converted)
[6] = SC 0.1 to 10 mg/kg, read-out: Tmax, range over the tested SC doses
[7] = bolus IV 1 mg/kg, read-out: Cmax (C5 min)
[8] = Japanese prostate cancer patients, 2-hour SC infusion 0.5 mg/day, Day 1, mean
[9] = Japanese prostate cancer patients, 2-hour SC infusion 0.5 mg/day, Day 14, mean
[10] = Japanese prostate cancer patients, 2-hour SC infusion 1.0 mg/day, Day 1, mean
[11] = Japanese prostate cancer patients, 2-hour SC infusion 1.0 mg/day, Day 14, mean
[12] = sc, 0.5 mg/day, Japanese prostate cancer patients, 2-hour SC infusion 0.5 mg/day, Day 1, mean
[13] = sc, 0.5 mg/day, Japanese prostate cancer patients, 2-hour SC infusion 0.5 mg/day, Day 14, mean
[14] = sc, 1 mg/day, Japanese prostate cancer patients, 2-hour SC infusion 1.0 mg/day, Day 1, mean
[15] = sc, 1 mg/day, Japanese prostate cancer patients, 2-hour SC infusion 1.0 mg/day, Day 14, mean

In the case of CC(=O)O.CNC(=N)NCCC[C@H](NC(=O)[C@H](CC(C)C)NC(=O)NNC(=O)[C@H](Cc1ccccc1)NC(=O)[C@@H](NC(=O)[C@H](CC(N)=O)NC(=O)[C@@H]1C[C@@H](O)CN1C(=O)[C@@H](Cc1ccc(O)cc1)NC(C)=O)[C@@H](C)O)C(=O)N[C@@H](Cc1c[nH]c2ccccc12)C(N)=O [API-MA, 2-(N-Acetyl-D-tyrosyl-trans-4-hydroxy-L-prolyl-Lasparaginyl-L-threonyl-L-phenylalanyl)-hydrazinocarbonyl-L-leucyl-Nω-methyl-L-arginyl-L-tryptophanamide monoacetate] (Ac-[dY][Hyp]NTF[azaGly]L[Arg(Me)]W-NH2), the IC50 (CYP1A2) is reported as over 7.78 nM, the AUC(0-t) ([1]; iv, 0.01 mg/kg, IV 0.01 mg/kg, PK linearity study) is reported as 14 ng·h/mL and the AUC(0-t) ([1]; iv, 0.1 mg/kg, IV 0.1 mg/kg, PK linearity study) is reported as 140 ng·h/mL. It also gave an AUC(0-t) ([1]; iv, 1 mg/kg, IV 1 mg/kg, PK linearity study) of 1390 ng·h/mL, an AUC(0-t) ([1]; iv, 1 mg/kg, IV 1 mg/kg) of 1460 ng·h/mL and an AUC(0-t) ([1]; sc, 1 mg/kg, SC 1 mg/kg, mean ± SD (n = 5)) of 804 ng·h/mL. For the same compound, the AUC(0-t) ([1]; sc, 10 mg/kg, SC 10 mg/kg, mean ± SD (n = 5)) was 309 ng·h/mL, the level at 5 min ([1]; IV 0.01 mg/kg, PK linearity study) was 24.1 ng/mL and the half-life ([1]; IV 0.01 mg/kg, PK linearity study, read-out: Elimination T1/2 (converted)) was 0.4 h. For the same compound, the level at 5 min ([1]; IV 0.1 mg/kg, PK linearity study) was 250 ng/mL, the half-life ([1]; IV 0.1 mg/kg, PK linearity study, read-out: Elimination T1/2 (converted)) was 0.4 h and the level at 5 min ([1]; IV 1 mg/kg, PK linearity study) was 2580 ng/mL. It also gave a Cmax at 5 min ([1]; IV 1 mg/kg, plasma concentration at 5 minutes, read-out: Cmax (C5 min)) of 2670 ng/mL, a half-life ([1]; IV 1 mg/kg, read-out: T1/2 alpha phase (converted)) of 0.5 h and a Cmax ([1]; SC 1 mg/kg, mean ± SD (n = 5)) of 381 ng/mL. It also gave a bioavailability ([1]; SC 1 mg/kg, read-out: BA (bioavailability)) of 55.3%, a Cmax ([1]; SC 10 mg/kg, mean ± SD (n = 5)) of 285 ng/mL and a Tmax ([1]; SC, read-out: Tmax, range over all tested SC doses) of 0.3 to 0.9 h. It also gave an AUC(0-t) ([2]; IV 1 mg/kg) of 3090 ng·h/mL, a half-life [2, 5] of 3 h and a Cmax ([2]; SC 0.1 mg/kg, mean ± SD (n = 4)) of 86.6 ng/mL. It also gave an AUC(0-t) ([2]; SC 0.1 mg/kg) of 252 ng·h/mL, a bioavailability ([2]; SC 0.1 mg/kg) of 81.5% and an AUC(0-t) ([2]; SC 1 mg/kg) of 2600 ng·h/mL. It also gave a bioavailability ([2]; SC 1 mg/kg) of 84%, a Cmax ([2]; SC 1 mg/kg) of 883 ng/mL and an AUC(0-t) ([2]; SC 10 mg/kg) of 28600 ng·h/mL. For the same compound, the bioavailability ([2]; SC 10 mg/kg) was 92.7%, the Cmax ([2]; SC 10 mg/kg) was 8840 ng/mL and the Tmax [2, 6] was 0.8 to 1 h. It also gave a Cmax at 5 min [2, 7] of 4250 ng/mL, an AUC(0-t) ([3]; IV 1 mg/kg) of 3160 ng·h/mL and a half-life [3, 5] of 3.2 h. It also gave an AUC(0-t) ([3]; SC 0.1 mg/kg) of 295 ng·h/mL, a bioavailability ([3]; SC 0.1 mg/kg) of 94.9% and a Cmax ([3]; SC 0.1 mg/kg) of 123 ng/mL. It also gave an AUC(0-t) ([3]; SC 1 mg/kg) of 2790 ng·h/mL, a bioavailability ([3]; SC 1 mg/kg) of 90.1% and a Cmax ([3]; SC 1 mg/kg) of 1320 ng/mL. It also gave an AUC(0-t) ([3]; SC 10 mg/kg) of 31600 ng·h/mL, a bioavailability ([3]; SC 10 mg/kg) of 102% and a Cmax ([3]; SC 10 mg/kg) of 12100 ng/mL. It also gave a Tmax [3, 6] of 0.3 to 0.4 h, a Cmax at 5 min [3, 7] of 5030 ng/mL and a half-life ([3]; multi-exponential decline after reaching Cmax, read-out: Mean terminal elimination T1/2 (converted)) of about 2.6 h. It also gave a CL/F [4, 8] of 13.4 L/h, a λz [4, 8] of 0.200 h⁻¹ and a CL/F [4, 9] of 12.6 L/h. The λz [4, 9] was 0.198 h⁻¹, the CL/F [4, 10] was 13.6 L/h and the λz [4, 10] was 0.221 h⁻¹. For the same compound, the CL/F [4, 11] was 13.4 L/h, the λz [4, 11] was 0.205 h⁻¹ and the half-life ([4]; days 1 and 14, both doses (0.5 and 1.0 mg/day), read-out: Mean T1/2) was 3 to 4 h. It also gave a Cmax [4, 12] of 8.12 ng/mL, a Tmax [4, 12] of 2.11 h and an AUC [4, 12] of 36.5 ng·h/mL. The half-life ([4]; sc, 0.5 mg/day, Japanese prostate cancer patients, 2-hour SC infusion 0.5 mg/day, Day 1, mean, read-out: T1/2 (converted)) was 3.48 h, the Vd/F [4, 12] was 66.9 L and the Cmax [4, 13] was 8.13 ng/mL. For the same compound, the Tmax [4, 13] was 2.08 h, the AUC [4, 13] was 39.1 ng·h/mL and the half-life ([4]; sc, 0.5 mg/day, Japanese prostate cancer patients, 2-hour SC infusion 0.5 mg/day, Day 14, mean, read-out: T1/2 (converted)) was 3.5 h. For the same compound, the Vd/F [4, 13] was 63.5 L, the Cmax [4, 14] was 16 ng/mL and the Tmax [4, 14] was 2.11 h. For the same compound, the AUC [4, 14] was 70.2 ng·h/mL, the half-life ([4]; sc, 1 mg/day, Japanese prostate cancer patients, 2-hour SC infusion 1.0 mg/day, Day 1, mean, read-out: T1/2 (converted)) was 3.15 h and the Vd/F [4, 14] was 61.6 L. It also gave a Cmax [4, 15] of 15.5 ng/mL, a Tmax [4, 15] of 2.11 h and an AUC [4, 15] of 71.2 ng·h/mL. For the same compound, the half-life ([4]; sc, 1 mg/day, Japanese prostate cancer patients, 2-hour SC infusion 1.0 mg/day, Day 14, mean, read-out: T1/2 (converted)) was 3.38 h, the Vd/F [4, 15] was 65.7 L and the AUC(0-inf) ([4]; 0.5 mg/day, Day 1, mean) was 36.8 ng·h/mL. For the same compound, the MRT ([4]; 0.5 mg/day, Day 1, mean) was 4.78 h, the AUC(0-inf) ([4]; 1.0 mg/day, Day 1, mean) was 70.6 ng·h/mL and the MRT ([4]; 1.0 mg/day, Day 1, mean) was 4.64 h.
